Results taken from US12036226B2, “Methods of treating subjects having diabetes with chronic kidney disease” (Poxel SA, priority 2018, dated 2024).

Columns and labels:
[1] = system: Japanese type 2 diabetic subjects; experiment: Phase 2b dose-ranging placebo-controlled 24-week study in Japanese type 2 diabetic subjects; type: in vivo, human
Description: A Dose-Ranging, Randomized, Double-Blind, Placebo-Controlled, Parallel-Group, Multi-Center Study of the Efficacy and Safety of 3 Doses of Imeglimin after 24 Weeks of Treatment in Japanese Type 2 Diabetic Subjects
In this study, a total of 299 subjects with T2DM received either imeglimin at one of the 3 doses (500, 1000 and 1500 mg bid) or placebo. The primary objective of this study was to assess the dose-response of imeglimin at 3 doses (500, 1000 and 1500 mg bid) compared to placebo in male and female subjects with T2DM after 24 weeks of treatment, using glycosylated hemoglobin (HbA1c) as the primary endpoint. Inclusion Criteria: subjects have an eGFR of ≥50 mL/min/1.73 m^2 at screening and >=45 at pre randomization visit. A total of 299 subjects were randomized 1:1:1:1 to one of the 4 study arms, with 268 subjects completing the study.
Percentage of responders was defined as the percentage of subjects who reached a value of HbA1c≤7% at the end of the 24-week double-blind treatment period. The analysis was performed using the FAS for subjects with an HbA1c value greater than 7.0% at baseline.
In a post-hoc analysis, efficacy and safety/tolerability profile was investigated in patients depending on their renal function (CKD 1=eGFR≥90 mL/min/1.73 m^2, CKD2=60≤eGFR<90 mL/min/1.73 m^2, CKD3A=45≤eGFR<60 mL/min/1.73 m^2). 299 patients were randomized 74% of the patients had CKD2, 14% had CKD1, and 12% CKD3A, respectively. The primary endpoint was met with a statistically significant dose-dependent placebo subtracted decrease in HbA1c at the 3 doses with the 2 top doses of 1,000 and 1,500 mg bid reaching an HbA1c decrease of −0.94% and −1.00% respectively (Table 5). […] There were no major differences in the incidence of AE, SAE or AE leading to treatment discontinuation.

[2] = system: Japanese patients with type 2 diabetes (T2DM); experiment: 24-week Phase III placebo-controlled monotherapy study in Japanese patients with type 2 diabetes; type: in vivo, human; conditions: for HbA1c LSM Difference vs. Placebo, Week 24 / Change in HbA1c from baseline, Week 24 LS Mean (SE) / HbA1c LSM Difference vs. Placebo (SE), Week 24: 1000 mg BID
Description: A 24-Week Phase III, Randomized, Double-Blind, Placebo-Controlled, Monotherapy Study to Assess the Efficacy, Safety and Tolerability of Imeglimin Administered Orally in Japanese Patients with Type 2 Diabetes (T2DM)
A total of 213 subjects were randomized in a 1:1 ratio to receive either imeglimin (1000 mg BID) or placebo BID for 24 weeks, with 194 subjects completing the study without Investigational Medicinal Product (IMP) discontinuation. The primary objective of this study was to determine the change in HbA1c from baseline after 24 weeks of imeglimin treatment compared to placebo. Secondary endpoints of the trial included fasting plasma glucose along with other standard glycemic and non-glycemic parameters. Subjects were to have an eGFR of ≥50 mL/min/1.73 m^2 at Screening and ≥45 mL/min/1.73 m^2 at Pre-randomization.

[3] = system: subjects with T2DMs; experiment: Earlier studies in subjects with T2DM for up to 24 weeks (monotherapy, add on to metformin and sitagliptin); type: in vivo, human
[4] = Protein binding; type: in vitro ADME
[5] = Metabolism in standard in vitro assays; type: in vitro ADME
[6] = Pharmacokinetics of imeglimin (dose proportionality, excretion pathway); type: in vivo
[7] = CKD Stage 3a (eGFR < 60 mL/min/1.73 m^2), 1500 mg BID
[8] = CKD Stage 3a (eGFR < 60 mL/min/1.73 m^2), 1500 mg BID, N 8
[9] = Normal eGFR (eGFR > 90 mL/min/1.73 m^2), 500 mg BID
[10] = Normal eGFR (eGFR > 90 mL/min/1.73 m^2), 500 mg BID, N 9
[11] = Normal eGFR (eGFR > 90 mL/min/1.73 m^2), 1000 mg BID
[12] = Normal eGFR (eGFR > 90 mL/min/1.73 m^2), 1000 mg BID, N 9
[13] = Normal eGFR (eGFR > 90 mL/min/1.73 m^2), 1500 mg BID
[14] = Normal eGFR (eGFR > 90 mL/min/1.73 m^2), 1500 mg BID, N 14

In the case of `C[C@H]1N=C(N(C)C)N=C(N)N1` [imeglimin, (6R)—N^2, N^2,6-trimethyl-3,6-dihydro-1,3,5-triazine-2,4-diamine], the “FPG LSM Difference vs. Placebo, Week 24” value [1, 7] is reported as -20.6 mg/dL, the “HbA1c LSM Difference vs. Placebo (SEM), Week 24” value [1, 7] is reported as −1.07% and the “Change in FPG from baseline, Week 24 LS Mean” value (shortened to “Change in FPG from baseline”) [1, 8] is reported as -12.2 mg/dL. The “Change in HbA1c from baseline, Week 24 LS Mean (SEM)” value (“Change in HbA1c … (SEM)” for short) [1, 8] was −0.86 (0.265) %, the “HbA1c LSM Difference vs. Placebo (SEM), Week 24” value ([1]; CKD Stage 3a (eGFR < 60 mL/min/1.73 m^2), 1500 mg BID, listed as Imeglimin) was −1.07 (0.353) % and the “incidence of subjects presenting with Treatment Emergent (TE) AE” value ([1]; Imeglimin 1000 mg) was 62.2%. For the same compound, the “incidence of subjects presenting with any adverse event (AE)” value ([1]; Imeglimin 1000 mg) was 73%, the “incidence of subjects presenting with Treatment Emergent (TE) AE” value ([1]; Imeglimin 1500 mg) was 73.3% and the “incidence of subjects presenting with any adverse event (AE)” value ([1]; Imeglimin 1500 mg) was 77.3%. For the same compound, the “FPG LSM Difference vs. Placebo, Week 24” value [1, 9] was 14.5 mg/dL, the “HbA1c LSM Difference vs. Placebo (SEM), Week 24” value [1, 9] was −0.01 (0.290) % and the “Change in FPG from baseline” value [1, 10] was 15.9 mg/dL. For the same compound, the “Change in HbA1c … (SEM)” value [1, 10] was 0.04 (0.221) %, the “FPG LSM Difference vs. Placebo, Week 24” value [1, 11] was -28.1 mg/dL and the “HbA1c LSM Difference vs. Placebo (SEM), Week 24” value [1, 11] was −0.85 (0.283) %. For the same compound, the “Change in FPG from baseline” value [1, 12] was -26.6 mg/dL, the “Change in HbA1c … (SEM)” value [1, 12] was −0.8 (0.213) % and the “FPG LSM Difference vs. Placebo, Week 24” value [1, 13] was 5.1 mg/dL. The “HbA1c LSM Difference vs. Placebo (SEM), Week 24” value [1, 13] was −0.47 (0.260) %, the “Change in FPG from baseline” value [1, 14] was 6.6 mg/dL and the “Change in HbA1c … (SEM)” value [1, 14] was −0.42 (0.175) %. For the same compound, the “incidence of TEAE considered as related to the study drug” value (“incidence of TEAE considered as related” below) ([1]; imeglimin 500 mg (placebo 8%)) was 5.3%, the “incidence of TEAE from the gastrointestinal disorder SOC” value ([1]; imeglimin 500 mg (placebo 14.7%)) was 14.7% and the “serious TEAEs” value ([1]; imeglimin 500 mg bid) was “none”. The “incidence of TEAE considered as related” value ([1]; imeglimin 1000 mg (placebo 8%)) was 5.4%, the “incidence of TEAE from the gastrointestinal disorder SOC” value ([1]; imeglimin 1000 mg (placebo 14.7%)) was 18.9% and the “serious TEAEs” value ([1]; imeglimin 1000 mg bid) was 5.4%. For the same compound, the “incidence of TEAE considered as related” value ([1]; imeglimin 1500 mg (placebo 8%)) was 24%, the “incidence of TEAE from the gastrointestinal disorder SOC” value ([1]; imeglimin 1500 mg (placebo 14.7%)) was 32% and the “serious TEAEs” value ([1]; imeglimin 1500 mg bid) was 1.3%. The “HbA1c LSM Difference vs. Placebo, Week 24” value ([2]; CKD Stage 2 (eGFR = 60-90 mL/min/1.73 m^2)) was −0.96%, the “Change in HbA1c from baseline, Week 24 LS Mean (SE)” value (shortened to “Change in HbA1c … (SE)”) ([2]; CKD Stage 2 (eGFR = 60-90 mL/min/1.73 m^2), N 66) was −0.82 (0.08) % and the “HbA1c LSM Difference vs. Placebo, Week 24” value ([2]; CKD Stage 2 (eGFR = 60-90 mL/min/1.73 m^2), listed as Imeglimin) was −0.96 (0.11) %. For the same compound, the “HbA1c LSM Difference vs. Placebo, Week 24” value ([2]; CKD Stage 3a (eGFR < 60 mL/min/1.73 m^2)) was −0.70%, the “Change in HbA1c … (SE)” value ([2]; CKD Stage 3a (eGFR < 60 mL/min/1.73 m^2), N 21) was −0.66 (0.13) % and the “HbA1c LSM Difference vs. Placebo, Week 24” value ([2]; CKD Stage 3a (eGFR < 60 mL/min/1.73 m^2), listed as Imeglimin) was −0.70 (0.19) %. The “HbA1c LSM Difference vs. Placebo (SE), Week 24” value ([2]; Normal eGFR (eGFR > 90 mL/min/1.73 m^2)) was −0.59%, the “Change in HbA1c … (SE)” value ([2]; Normal eGFR (eGFR > 90 mL/min/1.73 m^2), N 11) was −0.33 (0.20) % and the “HbA1c LSM Difference vs. Placebo (SE), Week 24” value ([2]; Normal eGFR (eGFR > 90 mL/min/1.73 m^2), listed as Imeglimin) was −0.59 (0.32) %. The “A1C lowering compared to placebo” value ([2]; pre-specified analysis, stage 2 and 3a CKD (eGFR <90 mL/min/1.73 m^2, n=178)) was “improvement in A1C lowering as compared to placebo”, the “tolerability / safety profile” value [3] was “well-tolerated with a safety profile comparable to that of placebo” and the protein binding [4] was < 8 % bound. The metabolism [5] was “no appreciable metabolism”, the “dose proportionality of exposures” value ([6]; 250 to 2000 mg range) was “less than dose proportional exposures” and the main excretion pathway ([6]; in vivo) was “renal elimination as the main excretion pathway”.
